What was measured:
[1] = shake flask on a mixture of 185; loss from the water phase only; LC-QTOF peak areas; settings: room
[2] = shake flask on a mixture of 185; loss from the water phase only; LC-Orbitrap peak areas; settings: room

Compound	log partition 1-octanol / HPLC water, unbuffered, traces of methanol / DMSO [2] [log10]	log partition butyl acetate / HPLC water, unbuffered, traces of methanol / DMSO [2] [log10]	log partition chloroform / HPLC water, unbuffered, traces of methanol / DMSO [2] [log10]	log partition cyclohexane / HPLC water, unbuffered, traces of methanol / DMSO [2] [log10]	log partition dichloromethane / HPLC water, unbuffered, traces of methanol / DMSO [2] [log10]	log partition n-hexane / HPLC water, unbuffered, traces of methanol / DMSO [2] [log10]	log partition n-octane / HPLC water, unbuffered, traces of methanol / DMSO [2] [log10]	log partition n-undecane / HPLC water, unbuffered, traces of methanol / DMSO [2] [log10]	log partition oleylalcohol / HPLC water, unbuffered, traces of methanol / DMSO [2] [log10]	log partition toluene / HPLC water, unbuffered, traces of methanol / DMSO [2] [log10]	log partition 1-octanol / HPLC water, unbuffered, traces of methanol / DMSO [1] [log10]	log partition butyl acetate / HPLC water, unbuffered, traces of methanol / DMSO [1] [log10]	log partition chloroform / HPLC water, unbuffered, traces of methanol / DMSO [1] [log10]	log partition cyclohexane / HPLC water, unbuffered, traces of methanol / DMSO [1] [log10]	log partition dichloromethane / HPLC water, unbuffered, traces of methanol / DMSO [1] [log10]	log partition n-hexane / HPLC water, unbuffered, traces of methanol / DMSO [1] [log10]	log partition n-octane / HPLC water, unbuffered, traces of methanol / DMSO [1] [log10]	log partition n-undecane / HPLC water, unbuffered, traces of methanol / DMSO [1] [log10]	log partition oleylalcohol / HPLC water, unbuffered, traces of methanol / DMSO [1] [log10]	log partition toluene / HPLC water, unbuffered, traces of methanol / DMSO [1] [log10]
O=S(=O)(O)C(F)(F)F	–	–	–	–	–	–	–	–	–	–	-1.49	-1.234	1.635	-0.7044	1.509	-0.8208	-0.9229	-0.955	-1.56	-0.8212
Oc1c(Cl)cc(Cl)c(Cl)c1Cc1c(O)c(Cl)cc(Cl)c1Cl	–	–	–	–	–	–	–	–	–	–	3.536	2.622	2.343	2.027	1.996	1.5	1.932	2.251	2.088	2.305
CCCN(CCC)c1c([N+](=O)[O-])cc(C(C)C)cc1[N+](=O)[O-]	1.667	0.7238	0.1749	-0.3058	-0.415	0.4636	-0.4473	-0.3356	0.7657	0.0275	–	–	–	–	–	–	–	–	–	–
O=C(OC1CCCCC1)c1ccccc1C(=O)OC1CCCCC1	0.6596	0.2225	0.1245	-0.9365	0.1411	-0.6432	-1.045	-0.8058	-0.79	-1.067	–	–	–	–	–	–	–	–	–	–
CCCCC(CC)C(=O)OCCOCCOCCOCCOC(=O)C(CC)CCCC (stereo not shown)	1.119	-0.08786	-0.484	-2.242	-0.03133	-1.802	-2.665	-0.9886	1.482	0.3117	–	–	–	–	–	–	–	–	–	–
COC(=O)c1sccc1S(N)(=O)=O	1.602	1.673	1.568	-1.037	1.105	-1.408	-1.192	-1.316	0.8181	0.3445	–	–	–	–	–	–	–	–	–	–
Cc1cc(SCc2sc(-c3ccc(C(F)(F)F)c(F)c3)nc2C)ccc1OCC(=O)O	-0.1342	0.8792	0.4425	-1.06	0.6672	-1.28	-0.8266	-1.326	0.4514	-0.01784	–	–	–	–	–	–	–	–	–	–

The next lines start with results.

log partition 1-octanol / HPLC water, unbuffered, traces of methanol / DMSO [2] [log10]	log partition butyl acetate / HPLC water, unbuffered, traces of methanol / DMSO [2] [log10]	log partition chloroform / HPLC water, unbuffered, traces of methanol / DMSO [2] [log10]	log partition cyclohexane / HPLC water, unbuffered, traces of methanol / DMSO [2] [log10]	log partition dichloromethane / HPLC water, unbuffered, traces of methanol / DMSO [2] [log10]	log partition n-hexane / HPLC water, unbuffered, traces of methanol / DMSO [2] [log10]	log partition n-octane / HPLC water, unbuffered, traces of methanol / DMSO [2] [log10]	log partition n-undecane / HPLC water, unbuffered, traces of methanol / DMSO [2] [log10]	log partition oleylalcohol / HPLC water, unbuffered, traces of methanol / DMSO [2] [log10]	log partition toluene / HPLC water, unbuffered, traces of methanol / DMSO [2] [log10]	Compound	log partition 1-octanol / HPLC water, unbuffered, traces of methanol / DMSO [1] [log10]	log partition butyl acetate / HPLC water, unbuffered, traces of methanol / DMSO [1] [log10]	log partition chloroform / HPLC water, unbuffered, traces of methanol / DMSO [1] [log10]	log partition cyclohexane / HPLC water, unbuffered, traces of methanol / DMSO [1] [log10]	log partition dichloromethane / HPLC water, unbuffered, traces of methanol / DMSO [1] [log10]	log partition n-hexane / HPLC water, unbuffered, traces of methanol / DMSO [1] [log10]	log partition n-octane / HPLC water, unbuffered, traces of methanol / DMSO [1] [log10]	log partition n-undecane / HPLC water, unbuffered, traces of methanol / DMSO [1] [log10]	log partition oleylalcohol / HPLC water, unbuffered, traces of methanol / DMSO [1] [log10]	log partition toluene / HPLC water, unbuffered, traces of methanol / DMSO [1] [log10]
0.1434	0.1277	1.369	-0.01168	1.153	0.1369	-0.1323	-0.3053	-0.05327	0.5377	Cc1ccc(N)c(S(=O)(=O)O)c1	–	–	–	–	–	–	–	–	–	–
0.3483	0.1767	0.2115	0.2977	0.2897	0.2474	0.3088	0.1588	0.003105	0.07569	CCCC1COC(Cn2cncn2)(c2ccc(Cl)cc2Cl)O1 (stereo not shown)	–	–	–	–	–	–	–	–	–	–
0.08604	-0.4137	-0.0585	-0.2421	0.1807	-0.1192	-0.1298	-0.4578	-0.2233	-0.2508	c1ccc(CCCc2ccncc2)cc1	–	–	–	–	–	–	–	–	–	–

Source: article PMC10569036
